pIC50, pKd: −log10 of the molar value. The source made the active and inactive calls. The calls are words filed in the database; no cut-off is given here.
What was measured:
[1] = molecular target: T1, Insulin-like growth factor 2 mRNA-binding protein 1 (Homo sapiens, UniProt Q9NZI8); test: Inhibition of human IGF2BP1 transfected in RKO cells incubated for 24 hrs by split-luciferase assay; assay type: cell-based
NCI-H1299 [2] = test: Inhibition of wound healing in human NCI-H1299 cells by IncuCyte live-cell imaging analysis; assay type: functional, cell-based
NCI-H1299 [3] = test: Inhibition of wound healing in human NCI-H1299 cells at 1.25 to 5 uM by IncuCyte live-cell imaging analysis; assay type: functional, cell-based; conditions: dose 1.25-5 µM
LKR-M cell [4] = test: Antiproliferative activity against mouse LKR-M cells transfected with GFP; assay type: functional, cell-based
LKR-M cell [5] = test: Antiproliferative activity against mouse LKR-M cells transfected with GFP-IGF2BP1; assay type: functional, cell-based
NCI-H1299 [6] = test: Antiproliferative activity against human NCI-H1299 cells; assay type: functional, cell-based
HCT-116 [7] = test: Antiproliferative activity against human HCT-116 cells; assay type: functional, cell-based
SW480 [8] = test: Inhibition of cell migration in IGF2BP1 knockout human SW480 cells at 2 uM; assay type: functional, cell-based
RKO = test: Induction of apoptosis in human RKO cells; assay type: functional, cell-based
SW480 [9] = test: Inhibition of cell migration in human SW480 cells at 2 uM; assay type: functional, cell-based
LKR-M cell [10] = test: Inhibition of wound healing in mouse LKR-M cells transfected with IGF2BP1 at 5 uM by IncuCyte live-cell imaging analysis; assay type: functional, cell-based
LKR-M cell [11] = test: Inhibition of wound healing in mouse LKR-M cells transfected with GFP at 5 uM by IncuCyte live-cell imaging analysis; assay type: functional, cell-based
HCT-116 [12] = test: Induction of apoptosis in human HCT-116 cells; assay type: functional, cell-based; conditions: dose 2-4 µM
LKR-M cell [13] = test: Antiproliferative activity against mouse LKR-M cells transfected with GFP-IGF2BP1 at 1.25 uM; assay type: functional, cell-based
NCI-H1299 [14] = test: Antiproliferative activity against human NCI-H1299 cells at 1.25 to 5 uM; assay type: functional, cell-based; conditions: dose 1.25-5 µM
SW480 [15] = test: Induction of apoptosis in human SW480 cells; assay type: functional, cell-based; conditions: dose 2-4 µM
[16] = molecular target: T1, Insulin-like growth factor 2 mRNA-binding protein 1; test: Binding affinity to recombinant full-length human IGF2BP1 KH34 domain by MST assay

T1 sequence (Q9NZI8 whole entry): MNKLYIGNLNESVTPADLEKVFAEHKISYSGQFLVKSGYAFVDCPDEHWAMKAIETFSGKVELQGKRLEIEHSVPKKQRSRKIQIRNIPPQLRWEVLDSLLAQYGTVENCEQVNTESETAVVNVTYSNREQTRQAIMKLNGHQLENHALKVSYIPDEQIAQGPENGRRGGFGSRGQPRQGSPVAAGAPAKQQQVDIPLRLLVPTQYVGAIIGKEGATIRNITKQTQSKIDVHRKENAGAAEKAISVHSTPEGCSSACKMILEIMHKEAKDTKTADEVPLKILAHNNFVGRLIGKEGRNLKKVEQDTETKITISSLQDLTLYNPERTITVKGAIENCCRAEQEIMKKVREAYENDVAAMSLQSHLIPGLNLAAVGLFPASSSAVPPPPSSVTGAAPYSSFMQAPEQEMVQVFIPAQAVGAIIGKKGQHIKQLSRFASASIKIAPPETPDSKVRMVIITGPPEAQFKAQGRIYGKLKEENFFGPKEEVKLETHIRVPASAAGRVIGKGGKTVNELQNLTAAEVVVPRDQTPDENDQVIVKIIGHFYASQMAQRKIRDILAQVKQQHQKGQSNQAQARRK

inhibition [1] | pIC50 (NCI-H1299 [2]) | SMILES | other results
Active | < 4.00 | O=C(c1ccc(CN2CCOCC2)cc1)N1CCN(c2ccc3c(c2)OCO3)CC1 | 
inactive |  | O=C(c1ccc(Cn2cnc([N+](=O)[O-])n2)cc1)N1CCN(c2ccc3c(c2)OCO3)CC1 | 
Active | 5.35 | NC(=S)NCc1ccc(C(=O)N2CCN(c3ccc4c(c3)OCO4)CC2)cc1 | inhibition (NCI-H1299 [3]): Active
Active | < 4.00 | O=C(c1ccc(CN2CCCC2)cc1)N1CCN(c2ccc3c(c2)OCO3)CC1 | 
Active | 5.00 | O=C(c1ccc(Cn2cnnn2)cc1)N1CCCC(Nc2ccc3c(c2)OCO3)C1 (centres undefined) | 
Active | 5.60 | Cc1ccc(N2CCN(C(=O)c3ccc(Cn4cc(CO)c5ccccc54)cc3)CC2)cc1 | inhibition (NCI-H1299 [3]): Active
inactive |  | Cc1ccc(N2CCN(C(=O)c3ccc(Cn4ccnc4)cc3)CC2)cc1 | 
inactive |  | Cc1ccc(N2CCN(C(=O)c3ccc(CN4CCCC4)cc3)CC2)cc1 | 
inactive |  | Cc1ccc(N2CCN(C(=O)c3ccc(CN4CCOCC4)cc3)CC2)cc1 | 
Active | 4.52 | NC(=S)NCc1ccc(C(=O)N2CCCC(Nc3ccc4c(c3)OCO4)C2)cc1 (centres undefined) | 
inactive |  | O=C(c1ccc(Cn2cncn2)cc1)N1CCN(c2ccc3c(c2)OCO3)CC1 | 
inactive |  | Cc1ccc(N2CCN(C(=O)c3ccc(CNC(N)=S)cc3)CC2)cc1 | 
inactive |  | Cc1ccc(N2CCN(C(=O)c3ccc(Cn4cnnn4)cc3)CC2)cc1 | 
Active |  | O=C(c1ccc(Cn2cncn2)cc1)N1CCCC(Nc2ccc3c(c2)OCO3)C1 (centres undefined) | 
Active |  | O=C(c1ccc(CN2CCOCC2)cc1)N1CCCC(Nc2ccc3c(c2)OCO3)C1 (centres undefined) | 
inactive |  | O=C(c1ccc(Cn2cnnn2)cc1)N1CCN(c2ccc3c(c2)OCO3)CC1 | 
inactive |  | N#C[Se]Cc1ccc(C(=O)N2CCN(c3ccc4c(c3)OCO4)CC2)cc1 | 
Active |  | O=C(c1ccc(CN2CCCC2)cc1)N1CCCC(Nc2ccc3c(c2)OCO3)C1 (centres undefined) | 
 | 6.15 | O=C(c1ccc(Cn2cc(CO)c3ccccc32)cc1)N1CCN(c2ccc3c(c2)OCO3)CC1 | Activity (LKR-M cell [4]): inactive; Activity (LKR-M cell [5]): Dose-Dependent Effect; Activity (NCI-H1299 [6]): Dose-Dependent Effect; Activity (HCT-116 [7]): Dose-Dependent Effect; inhibition (NCI-H1299 [3]): Active; inhibition (SW480 [8]): inactive; Activity (RKO): inactive; inhibition (SW480 [9]): Active; inhibition (LKR-M cell [10]): Active; inhibition (LKR-M cell [11]): inactive; Activity (HCT-116 [12]): Dose-Dependent Effect; Activity (LKR-M cell [13]): Active; Activity (NCI-H1299 [14]): Active; Activity (SW480 [15]): Dose-Dependent Effect; pKd [16]: 6.08
Active | 4.70 | O=C(c1ccc(Cn2cnc([N+](=O)[O-])n2)cc1)N1CCCC(Nc2ccc3c(c2)OCO3)C1 (centres undefined) | 
inactive |  | Cc1ccc(N2CCN(C(=O)c3ccc(Cn4cncn4)cc3)CC2)cc1 | 
Active |  | O=C(c1ccc(Cn2ccnc2)cc1)N1CCCC(Nc2ccc3c(c2)OCO3)C1 (centres undefined) | 
inactive |  | O=C(c1ccc(Cn2ccnc2)cc1)N1CCN(c2ccc3c(c2)OCO3)CC1 | 
Active | 5.10 | Cc1ccc(N2CCN(C(=O)c3ccc(Cn4cnc([N+](=O)[O-])n4)cc3)CC2)cc1 | inhibition (NCI-H1299 [3]): Active

SMILES | inhibition [1] | pIC50 (NCI-H1299 [2]) | other results
N#C[Se]Cc1ccc(C(=O)N2CCCC(Nc3ccc4c(c3)OCO4)C2)cc1 (centres undefined) | Active | 5.00 | inhibition (NCI-H1299 [3]): Active
Cc1ccc(N2CCN(C(=O)c3ccc(C[Se]C#N)cc3)CC2)cc1 | inactive |  | 

Reference: ChEMBL document CHEMBL5532648, “Development of a specific and potent IGF2BP1 inhibitor: A promising therapeutic agent for IGF2BP1-expressing cancers” (Eur J Med Chem, 2024)
